Reference: US9573913B2, “Cathepsin cysteine protease inhibitors” (Merck Sharp & Dohme Corp., priority 2013, dated 2017)

Legend:
[1] = target: human cathepsin K (UniProt P43236); experiment: Cathepsin K Assay (hrbCat K); format: biochemical; conditions: Z-Leu-Arg-AMC substrate, pH 5.5, 15 min preincubation; read-out: hrbCat K (IP (nM))
Procedure, shortened: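 Human cathepsin K (0.4 nM) was preincubated 15 min at room temperature with compound in 50 mM MES pH 5.5, 2.5 mM EDTA, 2.5 mM DTT and 10% DMSO. Inhibition was fitted to a dose-response model.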

[2] = target: T1, human cathepsin F (Homo sapiens, UniProt Q9UBX1); experiment: Cathepsin F assay (hCat F); format: biochemical; conditions: Z-Phe-Arg-AMC substrate, pH 5.5, 15 min preincubation; read-out: hCat F (IP (nM))
T1 sequence (Q9UBX1 271-484): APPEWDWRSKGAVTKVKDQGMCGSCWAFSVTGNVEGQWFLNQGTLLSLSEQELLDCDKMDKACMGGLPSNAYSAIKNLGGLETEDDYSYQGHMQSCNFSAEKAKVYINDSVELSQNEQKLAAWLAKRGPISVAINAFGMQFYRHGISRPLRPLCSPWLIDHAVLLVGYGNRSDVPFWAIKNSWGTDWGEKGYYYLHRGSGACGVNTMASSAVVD
Procedure, shortened: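 AMC release from Z-Phe-Arg-AMC, added at 8 μM, was monitored fluorometrically (360/460 nm) for 20 min after 10 nM enzyme and compound had been preincubated 15 min at room temperature. Buffer: MES 50 mM pH 5.5, EDTA and DTT 2.5 mM each, 10% DMSO. Compound DMSO dilutions spanned 500–0.025 μM (3-fold). Dose-response fitting gave % inhibition.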

Compound	IC50 [1] [nM]	IC50 [2] [nM]
N#Cc1cc(Cl)ccc1-c1nc([C@@H]2CCCC[C@H]2C(=O)NC2(C#N)CC2)c(-c2ccc(N3CCS(=O)(=O)CC3)cc2)s1 [Example 87, (1R,2R)-2-(2-(4-chloro-2-cyanophenyl)-5-(4-(1,1-dioxidothiomorpho-lino)phenyl)thiazol-4-yl)-N-(1-cyanocyclopropyl) cyclohexanecarbox-amide]	6.7	7780
N#CC1(NC(=O)[C@@H]2CC(F)(F)CC[C@H]2c2nc(-c3ccc(F)cc3)sc2-c2ccc(N3CCS(=O)(=O)CC3)cc2)CC1 [Example 26, (1R,2R)-N-(1-cyanocyclopropyl)-2-(5-(4-(1,1-dioxidothiomorpho-lino)phenyl)-2-(4-fluorophenyl)thiazol-4-yl)-5,5-difluorocyclohexane-carboxamide]	0.3	35
CN=S1(=O)CCN(c2ccc(-c3sc(-c4ccc(F)cc4)nc3[C@@H]3CC[C@H](F)C[C@H]3C(=O)NC3(C#N)CC3)cc2)CC1 [Example 177, (1R,2R,5S)-N-(1-cyanocyclopropyl)-5-fluoro-2-(2-(4-fluorophenyl)-5-(4-(1-(methylimino)-1-oxidothiomorpholino)phenyl)thiazol-4-yl)cyclohexane-carboxamide]	3.5	3330
COc1ccccc1-c1nc([C@@H]2CCCC[C@H]2C(=O)NC2(C#N)CC2)c(-c2ccc(N3CCS(=O)(=O)CC3)cc2)s1 [Example 54, (1R,2R)-N-(1-cyanocyclopropyl)-2-(5-(4-(1,1-dioxidothiomorpho-lino)phenyl)-2-(2-methoxyphenyl)thi-azol-4-yl)cyclohexane-carboxamide]	2.1	1000
N#CC1(NC(=O)[C@@H]2CCCC[C@H]2c2nc(-c3ccc(F)c(F)c3)sc2-c2ccc(N3CCS(=O)(=O)CC3)cc2)CC1 [Example 58, (1R,2R)-N-(1-cyanocyclopropyl)-2-(2-(3,4-difluorophenyl)-5-(4-(1,1-dioxidothiomorpho-lino)phenyl)thiazol-4-yl)cyclohexane-carboxamide]	1.7	815
N#CC1(NC(=O)[C@@H]2CCCC[C@H]2c2nc(-c3ccc(F)c(C4CCOCC4)c3)sc2-c2ccc(N3CCS(=O)(=O)CC3)cc2)CC1 [Example 122, (1R,2R)-N-(1-cyanocyclopropyl)-2-(5-(4-(1,1-dioxidothiomorpho-lino)phenyl)-2-(4-fluoro-3-(tetrahydro-2H-pyran-4-yl)phenyl)thiazol-4-yl)cyclohexane-carboxamide]	2.2	1110
N#CC1(NC(=O)[C@@H]2CCCC[C@H]2c2nc(CCC(F)(F)F)sc2-c2ccc(N3CCS(=O)(=O)CC3)cc2)CC1 [Example 24, (1R,2R)-N-(1-cyanocyclopropyl)-2-(5-(4-(1,1-dioxidothiomorpho-lino)phenyl)-2-(3,3,3-trifluoropropyl)thia-zol-4-yl)cyclohexane-carboxamide]	5.6	2230
N#CC1(NC(=O)[C@@H]2C[C@H](F)CC[C@H]2c2nc(-c3ccc(F)cc3)sc2-c2ccc(N3CCS(=O)(=O)CC3)cc2)CC1 [Example 45, (1R,2R,5R)-N-(1-cyanocyclopropyl)-2-(5-(4-(1,1-dioxidothiomorpho-lino)phenyl)-2-(4-fluorophenyl)thiazol-4-yl)-5-fluorocyclohexane-carboxamide]	1.5	197
N#CC1(NC(=O)[C@@H]2CCCC[C@H]2c2nc(-c3ccc(F)cc3)sc2-c2ccc(C(=O)N3CCC(O)CC3)cc2)CC1 [Example 34, (1R,2R)-N-(1-cyanocyclopropyl)-2-(2-(4-fluorophenyl)-5-(4-(4-hydroxypiperidine-1-carbonyl)phenyl)thi-azol-4-yl)cyclohexane-carboxamide]	101	868
N#CC1(NC(=O)[C@@H]2CCCC[C@H]2c2nc(-c3cccc(C(F)(F)F)n3)sc2-c2ccc(N3CCS(=O)(=O)CC3)cc2)CC1 [Example 132, (1R,2R)-N-(1-cyanocyclopropyl)-2-(5-(4-(1,1-dioxidothiomorpho-lino)phenyl)-2-(6-(trifluoromethyl)pyridin-2-yl)thiazol-4-yl)cyclohexane-carboxamide]	1.8	2340
Cc1nc([C@@H]2CC[C@H](F)C[C@H]2C(=O)N[C@@H](C)C#N)c(-c2ccc(N3CCC(F)(F)CC3)cc2)s1 [Example 239, (1R,2R,5S)-N-((S)-1-cyanoethyl)-2-(5-(4-(4,4-difluoropiperidin-1-yl)phenyl)-2-methylthiazol-4-yl)-5-fluorocyclohexane-carboxamide]	8.5	5340
N#CC1(NC(=O)[C@@H]2CCCC[C@H]2c2nc(N3CC(F)(F)C3)sc2-c2ccc(N3CCS(=O)(=O)CC3)cc2)CC1 [Example 117, (1R,2R)-N-(1-cyanocyclopropyl)-2-(2-(3,3-difluoroazetidin-1-yl)-5-(4-(1,1-dioxidothiomorpho-lino)phenyl)thiazol-4-yl)cyclohexane-carboxamide]	8	≥ 10000
N#CC1(NC(=O)[C@@H]2CCCC[C@H]2c2nc(Oc3ccc(F)cc3)sc2-c2ccc(N3CCS(=O)(=O)CC3)cc2)CC1 [Example 189, (1R,2R)-N-(1-cyanocyclopropyl)-2-(5-(4-(1,1-dioxidothiomorpho-lino)phenyl)-2-(4-fluorophenoxy)thia-zol-4-yl)cyclohexane-carboxamide]	5.1	788
C[C@@H](C#N)NC(=O)[C@@H]1C[C@@H](F)CC[C@H]1c1nc(-c2ccc(F)cn2)sc1-c1ccc(N2CCS(=O)(=O)CC2)cc1 [Compound 8, (1R,2R,5S)-N—((S)-1-Cyanoethyl)-2-(5-(4-(1,1-dioxidothiomorpholino)phenyl)-2-(5-fluoropyridin-2-yl)thiazol-4-yl)-5-fluorocyclohexanecarboxamide]	1.3	1100
N#CC1(NC(=O)[C@@H]2C[C@@H](F)CC[C@H]2c2nc(C3(C(F)(F)F)CC3)sc2-c2ccc(N3CCS(=O)(=O)CC3)cc2)CC1 [Example 232, (1R,2R,5S)-N-(1-cyanocyclopropyl)-2-(5-(4-(1,1-dioxidothiomorpho-lino)phenyl)-2-(1-(trifluoromethyl)cyclopropyl)thiazol-4-yl)-5-fluorocyclohexane-carboxamide]	5	≥ 10000
N#CC1(NC(=O)[C@@H]2CCCC[C@H]2c2nc(Oc3ccc(F)cc3F)sc2-c2ccc(N3CCS(=O)(=O)CC3)cc2)CC1 [Example 198, (1R,2R)-N-(1-cyanocyclopropyl)-2-(2-(2,4-difluorophenoxy)-5-(4-(1,1-dioxidothiomorpho-lino)phenyl)thiazol-4-yl)cyclohexane-carboxamide]	4.2	1020
COc1cncc(F)c1-c1nc([C@@H]2CCCC[C@H]2C(=O)NC2(C#N)CC2)c(-c2ccc(N3CCS(=O)(=O)CC3)cc2)s1 [Example 97, (1R,2R)-N-(1-cyanocyclopropyl)-2-(5-(4-(1,1-dioxidothiomorpho-lino)phenyl)-2-(3-fluoro-5-methoxypyridin-4-yl)thiazol-4-yl)cyclohexane-carboxamide]	2.8	3080
N#CC1(NC(=O)[C@@H]2CCCC[C@H]2c2nc(C3CCS(=O)(=O)CC3)sc2-c2ccc(N3CCS(=O)(=O)CC3)cc2)CC1 [Example 158, (1R,2R)-N-(1-cyanocyclopropyl)-2-(2-(1,1-dioxidotetrahydro-2H-thiopyran-4-yl)-5-(4-(1,1-dioxidothiomorpho-lino)phenyl)thiazol-4-yl)cyclohexane-carboxamide]	4.6	≥ 10000
N#CC1(NC(=O)[C@@H]2CCCC[C@H]2c2nc(C3(c4ccc(F)cc4)CC3)sc2-c2ccc(N3CCS(=O)(=O)CC3)cc2)CC1 [Example 184, (1R,2R)-N-(1-cyanocyclopropyl)-2-(5-(4-(1,1-dioxidothiomorpho-lino)phenyl)-2-(1-(4-fluorophenyl)cyclo-propyl)thiazol-4-yl)cyclohexane-carboxamide]	5.2	1580
N#CC1(NC(=O)[C@@H]2CCCC[C@H]2c2nc(N3CCOC(c4ccccc4)C3)sc2-c2ccc(N3CCS(=O)(=O)CC3)cc2)CC1 (stereo partly drawn) [Example 103, (1R,2R)-N-(1-cyanocyclopropyl)-2-(5-(4-(1,1-dioxidothiomorpho-lino)phenyl)-2-(2-phenylmorpholino)thiazol-4-yl)cyclohexane-carboxamide]	1.2	1000
N#CC1(NC(=O)[C@@H]2C[C@@H](F)CC[C@H]2c2nc(-c3cncc(Cl)c3)sc2-c2ccc(N3CCS(=O)(=O)CC3)cc2)CC1 [Example 68, (1R,2R,5S)-2-(2-(5-chloropyridin-3-yl)-5-(4-(1,1-dioxidothiomorpho-lino)phenyl)thiazol-4-yl)-N-(1-cyanocyclopropyl)-5-fluorocyclohexane-carboxamide]	1.7	2310
N#CC1(NC(=O)[C@@H]2CC(F)(F)CC[C@H]2c2nc(-c3ccc(F)cc3)sc2-c2ccc(C(=O)N3CCNC(=O)C3)cc2)CC1 [Example 30, (1R,2R)-N-(1-cyanocyclopropyl)-5,5-difluoro-2-(2-(4-fluorophenyl)-5-(4-(3-oxopiperazine-1-carbonyl)phenyl)thi-azol-4-yl)cyclohexane-carboxamide]	2.2	51
